Assay results: publication PMC12670317, “Targeted NAT10 Degradation by PROTAC NP1192 Suppresses Hypoxia-Adaptive Glycolysis and Reinvigorates CD8^+ Effector T‑Cell Function for Synergistic Cancer Immunotherapy” (ACS Central Science, 2025)

Assays:
NAT10 = target: T1, NAT10 (Mus musculus, UniProt Q8K224); assay: NAT10 degradation in U14 cells, Western blot; assay type: cell-based; details: murine U14 cervical cells, same treatment (20 μM), 36 h
T1 construct: nearly 70% reduction in the NAT10 protein content in murine U14 cervical cells after 36 h; endogenous in cells; host or cells: U14 (murine cervical carcinoma cell line, RRID:CVCL_9U56)
T1 sequence (Q8K224 1-1024): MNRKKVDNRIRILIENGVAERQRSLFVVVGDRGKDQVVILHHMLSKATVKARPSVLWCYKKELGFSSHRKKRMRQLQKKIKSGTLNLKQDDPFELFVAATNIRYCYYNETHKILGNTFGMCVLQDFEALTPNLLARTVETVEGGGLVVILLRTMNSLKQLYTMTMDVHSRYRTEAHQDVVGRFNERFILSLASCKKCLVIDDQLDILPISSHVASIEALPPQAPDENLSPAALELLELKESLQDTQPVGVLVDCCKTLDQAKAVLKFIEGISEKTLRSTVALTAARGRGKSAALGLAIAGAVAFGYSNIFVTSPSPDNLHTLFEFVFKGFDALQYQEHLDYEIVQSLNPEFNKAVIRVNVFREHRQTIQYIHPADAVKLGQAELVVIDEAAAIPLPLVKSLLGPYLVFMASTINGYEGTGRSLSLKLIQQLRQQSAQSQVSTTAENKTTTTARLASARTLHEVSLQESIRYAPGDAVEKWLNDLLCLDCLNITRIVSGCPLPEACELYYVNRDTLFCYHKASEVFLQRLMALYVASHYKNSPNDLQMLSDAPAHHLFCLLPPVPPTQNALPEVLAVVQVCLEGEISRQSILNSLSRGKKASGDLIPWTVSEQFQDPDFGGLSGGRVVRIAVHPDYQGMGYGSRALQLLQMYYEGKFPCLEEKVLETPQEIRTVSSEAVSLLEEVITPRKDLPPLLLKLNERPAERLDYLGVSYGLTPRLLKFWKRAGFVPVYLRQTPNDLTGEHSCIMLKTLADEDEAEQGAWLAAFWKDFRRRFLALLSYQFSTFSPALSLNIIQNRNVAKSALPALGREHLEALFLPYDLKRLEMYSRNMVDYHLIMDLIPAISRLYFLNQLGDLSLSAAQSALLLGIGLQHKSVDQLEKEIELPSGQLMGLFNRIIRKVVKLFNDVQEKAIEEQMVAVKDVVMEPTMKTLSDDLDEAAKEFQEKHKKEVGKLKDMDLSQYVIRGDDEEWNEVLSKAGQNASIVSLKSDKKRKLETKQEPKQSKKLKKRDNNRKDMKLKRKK
Protocol: The human CCa cell line SiHa and the normal epithelial foreskin fibroblast line HFF-1 were purchased from the Cell Bank of the Chinese Academy of Sciences. Additionally, murine cervical carcinoma cell line U14 (RRID:CVCL_9U56) was purchased from Boster Company. HFF-1 and U14 cells were cultured in Dulbecco’s modified Eagle’s medium (DMEM) (Gibco, USA) supplemented with 10% heat-inactivated fetal bovine serum (FBS; Gibco, USA), while SiHa cells were incubated in RPMI 1640 medium (Gibco, USA) in a humid atmosphere with 5% CO2 at 37 °C. For hypoxia exposure, the cells were incubated in a sealed culture tank containing 5% CO2 and 0.1% O2 (MGC, Japan) for 36 h.
RIPA lysis buffer (Beyotime, China) mixed with 1% protease inhibitor (Sigma, US) was added to the cells, and a sample of total protein was obtained and then loaded onto an 8% or 12% polyacrylamide gel. The gel was placed in a buffer solution, and an electric current was applied. The separated proteins were subsequently transferred from the gel onto a PVDF membrane. Next, the membrane was blocked with 5% milk for 1 h to prevent nonspecific antibody binding. […] The target proteins were detected via chemiluminescence with a ChemiDoc MP Imaging System (Bio-Rad, US).

[1] = system: cervical squamous cell carcinoma and endocervical adenocarcinoma (CESC) patient-derived organoids; assay: ATP-based viability assay in patient-derived organoids, CESC; assay type: cell-based; details: Homo sapiens, CESC PDOs, read-out: IC50, organoid viability
Protocol: Organoid culture was performed according to previously established protocols. Briefly, we procured patient-derived tissue samples provided and technically manipulated by Accurate International Biotechnology Co., Ltd. Subsequently, these samples were subjected to mechanical and enzymatic dissociation to disaggregate the tissue into single cells or small clusters, while preserving cellular integrity. Following this initial step, the isolated cells or tissue fragments were embedded within a 3D ECM scaffold, such as Matrigel or collagen. The ECM scaffold served as a supportive substrate, promoting cellular self-organization and mimicking native tissue architecture. Additionally, a precisely formulated cocktail of growth factors, cytokines, and signaling molecules tailored to the specific tissue of interest was meticulously formulated and added to the culture medium to facilitate organoid growth and maintenance.

[2] = system: U14 cells subcutaneous xenograft; assay: U14 subcutaneous xenograft model in C57BL/6J mice; assay type: in vivo
Protocol: U14 cells (1 × 10^7 cells per mouse, approximately 100–150 μL of cell suspension) were implanted subcutaneously into the lateral lower dorsal surface of each mouse. The tumors were allowed to grow for 7 days, and the mice were then administered one of five treatments (group 1: U14 cells + DMSO; group 2: U14 cells + Remodelin; group 3: U14 cells + anti-PD-L1 antibody; group 4: U14 cells + NP1192; group 5: U14 cells + anti-PD-L1 antibody + NP1192). Each group of mice was assigned according to the principles of randomization and the blinding method. Tumors were measured every 2 days, and tumor volume was calculated via the following equation: volume = (width)^2 × length/2. Remodelin and NP1192 were injected into the peritumoral area every 2 days at a dose of 25 mg/kg, and the in vivo antimouse PD-L1 antibody (low endotoxin) was injected every 3 days at a dose of 2.5 mg/kg.
A lentiviral vector expressing firefly luciferase was transduced into the U14 cells. After puromycin selection and cell expansion, U14 cells with stable firefly luciferase expression were generated. C57BL/6J mice were randomly divided into the following 5 groups for further experiments: group 1, U14 cells + DMSO; group 2, U14 cells + Remodelin; group 3, U14 cells + anti-PD-L1 antibody; group 4, U14 cells + NP1192; and group 5, U14 cells + anti-PD-L1 antibody + NP1192. After tumor stabilization, the luciferase substrate was injected into the mice every 2 days, and fluorescence values were obtained via a Maestro in vivo imaging system.

N#Cc1ccc(-c2csc(N(CCCCCCC(=O)N3CCN(c4cccc5c4C(=O)N(C4CCC(=O)NC4=O)C5=O)CC3)N=C3CCCC3)n2)cc1 (centres unmarked) [NP1192]
reduction in NAT10 protein content (NAT10): ~70%
IC50 [1]: 3.05 µM
tumor volume ([2]; 25 mg/kg every 2 days, compared to DMSO or Remodelin): significantly reduced tumor volume
weight loss or systemic toxicity ([2]; U14 xenograft mice, 25 mg/kg): did not cause significant weight loss or systemic toxicity
reduction in tumor lactate levels ([2]; xenograft tumors after treatment for 1 week): more than 40%
